This is an account of results in ChEMBL document CHEMBL5346941, “Design, synthesis and evaluation of novel monoamine oxidase B (MAO-B) inhibitors with improved pharmacokinetic properties for Parkinson's disease” (Eur J Med Chem, 2023).

The target of one data set is CYP2C9 (Homo sapiens, UniProt P11712). Nature of the data set: Inhibition of CYP2C9 in human liver microsomes using diclofenac as substrate at 10 uM incubated for 10 mins in presence of NADPH by LC-MS/MS analysis relative to control. It is filed as ADME, Microsome. Conditions: probe diclofenac. In general terms: Liver microsomes are a subcellular fraction often used to study metabolism.
Sequence of CYP2C9 (P11712 whole entry): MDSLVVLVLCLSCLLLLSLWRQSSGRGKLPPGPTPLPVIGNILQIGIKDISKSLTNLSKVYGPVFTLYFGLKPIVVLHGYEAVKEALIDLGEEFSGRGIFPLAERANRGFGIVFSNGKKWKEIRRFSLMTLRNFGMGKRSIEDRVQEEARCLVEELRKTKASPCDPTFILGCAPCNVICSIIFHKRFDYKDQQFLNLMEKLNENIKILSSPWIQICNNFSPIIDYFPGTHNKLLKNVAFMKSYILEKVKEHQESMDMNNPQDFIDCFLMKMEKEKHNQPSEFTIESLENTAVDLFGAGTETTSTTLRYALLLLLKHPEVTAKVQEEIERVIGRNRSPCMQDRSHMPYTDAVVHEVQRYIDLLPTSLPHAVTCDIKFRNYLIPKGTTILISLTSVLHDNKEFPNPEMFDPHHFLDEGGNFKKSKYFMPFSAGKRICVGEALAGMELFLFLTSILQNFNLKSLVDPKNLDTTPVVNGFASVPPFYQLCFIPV

The nature of data set [1]: Protein binding in rat plasma at 1 uM incubated for 5 hrs by LC-MS/MS based rapid equilibrium dialysis method. Conditions: read-out: PPB (converted). Type of data set: ADME, cell-free. For orientation: In equilibrium dialysis free small molecules cross a membrane that holds back macromolecules.
The nature of data set [2]: Protein binding in mouse plasma at 1 uM incubated for 5 hrs by LC-MS/MS based rapid equilibrium dialysis method. It is filed as ADME, cell-free. Conditions: read-out: PPB (converted).
Data set [3] can be described thus: Cmax in fasted Sprague-Dawley rat at 5 mg/kg, IG measured for 24 hrs. It is filed as ADME, organism-based. Also noted: dose 5 mg/kg, time 24 hrs, route ig. The note with it: in vivo, po.
The nature of data set [4]: Drug concentration in Sprague-Dawley rat plasma at 5 mg/kg, ip measured after 60 mins by LC-MS/MS analysis. It is filed as ADME, organism-based.
A short description of data set [5]: Metabolic stability in human liver microsomes assessed as intrinsic clearance at 1 uM incubated for 60 mins in presence of NADPH by LC-MS/MS analysis. Type of data set: ADME, Microsome. The note with it: read-out: CLH.
Data set [6] in a line: Ratio of drug concentration in Sprague-Dawley brain to plasma at 5 mg/kg, ip measured after 120 mins by LC-MS/MS analysis. It is filed as ADME, organism-based. Conditions: rat, read-out: BPR.
Data set [7] in a line: Metabolic stability in dog liver microsomes assessed as intrinsic clearance at 1 uM incubated for 60 mins in presence of NADPH by LC-MS/MS analysis. Type of data set: ADME, Canis lupus familiaris, Microsome. Conditions: read-out: CLH.
A short description of data set [8]: Drug concentration in Sprague-Dawley rat brain at 5 mg/kg, ip measured after 120 mins by LC-MS/MS analysis. It is filed as ADME, organism-based. Conditions: read-out: Ct.
In another data set the target is T1, CYP2B6 (Homo sapiens, UniProt P20813).
T1 sequence (P20813 whole entry): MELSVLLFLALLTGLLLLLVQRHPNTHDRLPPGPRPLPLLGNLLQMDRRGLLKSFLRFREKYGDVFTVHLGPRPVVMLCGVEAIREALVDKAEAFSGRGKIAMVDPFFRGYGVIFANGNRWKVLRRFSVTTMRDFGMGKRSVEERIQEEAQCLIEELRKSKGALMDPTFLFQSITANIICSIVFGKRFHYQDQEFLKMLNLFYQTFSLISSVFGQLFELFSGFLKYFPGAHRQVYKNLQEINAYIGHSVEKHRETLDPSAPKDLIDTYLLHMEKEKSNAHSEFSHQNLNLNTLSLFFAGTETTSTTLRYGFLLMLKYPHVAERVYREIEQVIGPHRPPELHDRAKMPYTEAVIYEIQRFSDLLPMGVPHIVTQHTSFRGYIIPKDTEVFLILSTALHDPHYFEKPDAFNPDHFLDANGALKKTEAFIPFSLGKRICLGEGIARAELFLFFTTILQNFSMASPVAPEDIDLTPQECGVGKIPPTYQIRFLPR
Nature of the data set: Inhibition of CYP2B6 in human liver microsomes using bupropion as substrate at 10 uM incubated for 10 mins in presence of NADPH by LC-MS/MS analysis relative to control. The note with it: probe bupropion. It is filed as ADME, Microsome.

The next data set deals with T2, CYP2C8 (Homo sapiens, UniProt P10632).
T2 sequence (P10632 whole entry): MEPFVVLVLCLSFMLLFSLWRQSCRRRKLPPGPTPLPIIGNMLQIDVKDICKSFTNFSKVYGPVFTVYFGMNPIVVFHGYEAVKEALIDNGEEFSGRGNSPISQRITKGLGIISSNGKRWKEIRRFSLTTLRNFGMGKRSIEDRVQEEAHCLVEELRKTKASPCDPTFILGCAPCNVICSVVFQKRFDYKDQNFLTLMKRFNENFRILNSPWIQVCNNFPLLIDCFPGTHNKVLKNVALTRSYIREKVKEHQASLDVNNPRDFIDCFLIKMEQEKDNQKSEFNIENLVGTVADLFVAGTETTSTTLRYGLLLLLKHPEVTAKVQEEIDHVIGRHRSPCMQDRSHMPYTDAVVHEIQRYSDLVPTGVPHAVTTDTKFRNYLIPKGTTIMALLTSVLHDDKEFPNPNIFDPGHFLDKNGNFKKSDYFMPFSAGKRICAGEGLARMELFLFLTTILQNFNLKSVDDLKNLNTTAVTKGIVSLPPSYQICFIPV
Nature of the data set: Inhibition of CYP2C8 in human liver microsomes using amodiaquine as substrate at 10 uM incubated for 45 mins in presence of NADPH by LC-MS/MS analysis relative to control. Conditions: probe amodiaquine. Type of data set: ADME, Microsome.

Data set [9] can be described thus: Metabolic stability in mouse liver microsomes assessed as intrinsic clearance at 1 uM incubated for 60 mins in presence of NADPH by LC-MS/MS analysis. Type of data set: ADME, Microsome. Conditions: read-out: CLH.
Data set [10] in a line: AUC (0 to t) in fasted Sprague-Dawley rat at 1 mg/kg, iv measured for 24 hrs. It is filed as ADME, organism-based. Also noted: dose 1 mg/kg, time 24 hrs, route iv. The note with it: in vivo.
Data set [11] in a line: Drug concentration in Sprague-Dawley rat plasma at 5 mg/kg, ip measured after 15 mins by LC-MS/MS analysis. It is filed as ADME, organism-based.
Data set [12] in a line: Bioavailability in fasted Sprague-Dawley rat at 5 mg/kg, IG measured for 24 hrs. The note with it: in vivo, po. It is filed as ADME, organism-based.
A further data set concerns the target CYP2C19 (Homo sapiens, UniProt P33261). Nature of the data set: Inhibition of CYP2C19 in human liver microsomes using omeprazole as substrate at 10 uM incubated for 45 mins in presence of NADPH by LC-MS/MS analysis relative to control. The note with it: probe omeprazole. Type of data set: ADME, Microsome.
Data set [13] in a line: Protein binding in human plasma at 1 uM incubated for 5 hrs by LC-MS/MS based rapid equilibrium dialysis method. It is filed as ADME, cell-free. Conditions: read-out: PPB (converted).
A short description of data set [14]: AUC (0 to t) in fasted Sprague-Dawley rat at 5 mg/kg, IG measured for 24 hrs. Type of data set: ADME, organism-based. Also noted: dose 5 mg/kg, time 24 hrs, route ig. Conditions: in vivo, po.
A short description of data set [15]: Metabolic stability in human liver microsomes assessed as half life at 1 uM incubated for 60 mins in presence of NADPH by LC-MS/MS analysis. Type of data set: ADME, Microsome.
Data set [16] is described as follows: Cmax in fasted ICR mouse at 2 mg/kg, iv measured for 24 hrs. It is filed as ADME, organism-based. The note with it: in vivo. Details: time 24 hrs, dose 2 mg/kg, route iv.
Data set [17] in a line: Elimination half life in fasted ICR mouse at 2 mg/kg, iv measured for 24 hrs. Type of data set: ADME, organism-based. Conditions: in vivo, read-out: beta t1/2 (converted).
Data set [18] has as its target T3, Amine oxidase [flavin-containing] B (Homo sapiens, UniProt P27338).
T3 sequence (P27338 whole entry): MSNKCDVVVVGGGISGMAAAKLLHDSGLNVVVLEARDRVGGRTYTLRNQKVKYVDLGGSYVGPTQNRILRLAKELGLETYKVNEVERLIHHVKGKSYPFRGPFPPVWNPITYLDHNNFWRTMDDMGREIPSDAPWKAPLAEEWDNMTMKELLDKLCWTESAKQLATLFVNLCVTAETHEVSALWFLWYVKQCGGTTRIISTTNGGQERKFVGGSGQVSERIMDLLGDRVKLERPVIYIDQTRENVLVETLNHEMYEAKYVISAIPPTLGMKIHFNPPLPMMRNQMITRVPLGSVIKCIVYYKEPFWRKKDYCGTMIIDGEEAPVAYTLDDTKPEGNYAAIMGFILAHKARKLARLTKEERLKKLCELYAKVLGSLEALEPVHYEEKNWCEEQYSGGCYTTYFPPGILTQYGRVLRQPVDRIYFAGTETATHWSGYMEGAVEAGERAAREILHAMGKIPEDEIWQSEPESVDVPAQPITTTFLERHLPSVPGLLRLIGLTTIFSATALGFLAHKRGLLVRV
Nature of the data set: Inhibition of recombinant human MAO-B expressed in Sf9 cells using p-tyramine as substrate preincubated for 15 mins followed by substrate addition and measured after 60 mins by luciferin based luminescence analysis.

Structures are written as SMILES.

Sequence of CYP2C19 (P33261 whole entry): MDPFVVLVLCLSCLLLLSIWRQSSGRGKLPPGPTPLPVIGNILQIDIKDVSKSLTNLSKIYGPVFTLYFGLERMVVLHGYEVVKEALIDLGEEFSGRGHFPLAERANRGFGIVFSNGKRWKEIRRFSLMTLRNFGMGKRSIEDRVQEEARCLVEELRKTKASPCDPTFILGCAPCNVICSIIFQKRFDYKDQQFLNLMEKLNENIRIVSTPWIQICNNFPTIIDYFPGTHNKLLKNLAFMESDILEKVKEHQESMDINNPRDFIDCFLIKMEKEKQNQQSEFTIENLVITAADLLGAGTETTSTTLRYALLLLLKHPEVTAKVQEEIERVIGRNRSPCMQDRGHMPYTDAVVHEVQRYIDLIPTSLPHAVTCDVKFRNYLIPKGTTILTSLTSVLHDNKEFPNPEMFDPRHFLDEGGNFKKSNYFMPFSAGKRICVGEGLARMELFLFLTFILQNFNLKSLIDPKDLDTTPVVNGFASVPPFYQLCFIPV

Consider `NC(=O)[C@@H]1C[C@H](F)CN1Cc1ccc2oc(-c3ccc(F)cc3)cc2c1`, for which the inhibition at 10 min, 10 µM at CYP2C9 came to 8.05%; at CYP2B6, 41.2%. The fraction unbound at 5 h, 1 µM is 0.0062 in [1], 0.0066 in data set [2] and 0.0058 in data set [13]. Also, the Cmax turned out to be 436 ng/mL in [3] and 900 ng/mL in data set [16]. The same molecule displayed a concentration at 1 h in [4] of 540 ng/mL. The CLint scaled at 1 µM in data set [5] is 2.5 mL/min/kg; in data set [7], 7.5 mL/min/kg; in data set [9], 6.9 mL/min/kg. For the same molecule, in data set [6], the Kp at 2 h turned out to be 15.5. In addition, in data set [8], the concentration at 2 h was determined as 7090 ng/g. In addition, the figures for the inhibition at 0.75 h, 10 µM on CYP2C8 and at CYP2C19 were 5.74% and 75.9%, respectively. The figures for the AUC(0-t) at 24 h in data set [10] and in data set [14] were 305 ng·h/mL and 2280 ng·h/mL, respectively. Besides, in data set [11], the concentration at 0.25 h is 536 ng/mL. In data set [12], the bioavailability worked out at 150%. For the same molecule, the half-life at 1 µM in data set [15] was 10.4 h. Further, the half-life in [17] was 3.37 h. In addition, the IC50 in data set [18] was found to be 37 nM.

The inhibition is how much of the control response was suppressed. Broadly, the Cmax is the maximum level reached in the sampled fluid or tissue. One may read the AUC(0-t) as exposure summed from dosing to a finite time, without extrapolation to infinity. Broadly, the IC50 is the point on the concentration scale where inhibition reaches its midpoint.
